From patent US20070042045A1, “Multilayer dosage form comprising a matrix that influences release of a modulatory substance” (ROEHM GBMH & CO. KG, priority 2003, published 2007) come the findings set out here.

This data set can be described thus: active ingredient delivery in PhEur phosphate buffer of pH 6.8 in a USP dissolution tester. To be noted: versus pellets with microcrystalline cellulose (Example 5), EUDRAGIT RS coating, no matrix. In kind it is physicochemical.
On to `O=C(O)CC(O)(CC(=O)O)C(=O)O` [citric acid], for which the “effect of the modulating substance in the core on active ingredient delivery” value is “accelerating effect”. The result for `CC(=O)[O-].[Na+]` [sodium acetate] reads “accelerating effect”; that for `[Cl-].[Na+]` [sodium chloride], “reducing effect”. Turning to `O=C([O-])CCC(=O)[O-].[Na+].[Na+]` [sodium succinate], the “effect of the modulating substance in the core on active ingredient delivery” value is “accelerating effect”.
